The test has as its target truncated CRBN (319-427) (Homo sapiens (Human), UniProt Q96SW2). The experiment in a line: Fluorescence binding assay (fluorescence quenching), affinity to E3-CEREBLON (CRBN)-ubiquitin ligase. Particulars: ubiquitination moiety, pH 6.5. How it is done: Fluorescence quenching end point measurements were performed in black polystyrene 384-plates on Tecan Safire monochromator reader with the following settings: excitation 280 nm; excitation bandwidth 10.0 nm; emission collection 340 nm; emission bandwidth 20.0 nm; high sensitivity flash mode; integration time 40 μS; delay 0 μm. All measurements were done in duplicates; GraphPad Prism 5.03 was used for data evaluation, curve fitting, plotting and determination of IC50 values.
Serial dilutions of each tested ligands were mixed with truncated CRBN (319-427) to a final volume of 25 μL in the assay buffer (20 mM sodium phosphate buffer, pH 6.5, with 150 mM sodium chloride). The final concentration of CRBN in all assay will be 5-10 μM with DMSO level at 4%. A control lanes were prepared with only tested ligands without the addition of CRBN, top up with assay buffer to 25 μL. Plates were incubated for 5 minutes and analyzed using the monochromator plate reader.
IC50 is the compound concentration that causes 50% quenching of the desired activity.
truncated CRBN (319-427), sequence (Q96SW2 319-427): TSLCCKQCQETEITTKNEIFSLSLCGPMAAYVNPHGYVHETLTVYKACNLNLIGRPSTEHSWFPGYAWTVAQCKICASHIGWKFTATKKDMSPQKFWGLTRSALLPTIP
As usually defined, the IC50 is the concentration at which inhibition is half-maximal. `O=C1Cc2ccc(-c3ccncc3)cc2N1` [Compound 002, 6-(pyridin-4-yl)indolin-2-one] showed an IC50 of 100 to 300 µM.

For the compound `O=C1Cc2ccc(-c3cccnc3)cc2N1` [Compound 003, 6-(pyridin-3-yl)indolin-2-one], the IC50 is greater than 300 µM.

Consider `O=C1Cc2ccc(-c3ccccn3)cc2N1` [Compound 004, 6-(pyridin-2-yl)indolin-2-one], for which the IC50 lay within 100 to 300 µM.

`Cc1cc(-c2ccc3c(c2)NC(=O)C3)ccn1` [Compound 005, 6-(2-methylpyridin-4-yl)indolin-2-one] displayed an IC50 of 100 to 300 µM.

As for `Cc1cnccc1-c1ccc2c(c1)NC(=O)C2` [Compound 006, 6-(3-methylpyridin-4-yl)indolin-2-one], the IC50 was greater than 300 µM.

`CC1C(=O)Nc2cc(-c3ccncc3)ccc21` (stereo not drawn) [Compound 007, 3-methyl-6-(pyridin-4-yl)indolin-2-one] showed an IC50 of 100 to 300 µM.

The compound `CN1C(=O)Cc2ccc(-c3ccncc3)cc21` [Compound 008, 1-methyl-6-(pyridin-4-yl)indolin-2-one] displayed an IC50 greater than 300 µM.

With `O=C1Cc2ccc(-c3ccnc(Cl)c3)cc2N1` [Compound 009, 6-(2-chloropyridin-4-yl)indolin-2-one], the IC50 is greater than 300 µM.

`COc1cc(-c2ccc3c(c2)NC(=O)C3)ccn1` [Compound 010, 6-(2-methoxypyridin-4-yl)indolin-2-one] registered an IC50 of 100 to 300 µM.

In turn, `CCOC(=O)c1cc(-c2ccc3c(c2)NC(=O)C3)ccn1` [Compound 014, ethyl 4-(2-oxoindolin-6-yl)picolinate] yielded an IC50 of 100 to 300 µM.

Compound `Cn1cc(-c2ccc3c(c2)NC(=O)C3)cn1` [Compound 015, 6-(1-methyl-1H-pyrazol-4-yl)indolin-2-one] registered an IC50 greater than 300 µM.

For `O=C1Cc2ccc(-c3ccc4[nH]ccc4c3)cc2N1` [Compound 016, 6-(1H-indol-5-yl)indolin-2-one], the IC50 is greater than 300 µM.

The compound `O=C1Cc2ccc(-c3cnc4[nH]ccc4c3)cc2N1` [Compound 017, 6-(1H-pyrrolo[2,3-b]pyridin-5-yl)indolin-2-one] displayed an IC50 greater than 300 µM.

Take `O=C1Cc2ccc(-c3ccc(CN4CCNCC4)cc3)cc2N1` [Compound 018, 6-(4-(piperazin-1-ylmethyl)phenyl)indolin-2-one]: the IC50 was in the range of 1 to 100 µM.

`O=C1Cc2ccc(-c3cccc(CN4CCNCC4)c3)cc2N1` [Compound 019, 6-(3-(piperazin-1-ylmethyl)phenyl)indolin-2-one] showed an IC50 greater than 300 µM.

`O=C1Cc2ccc(-c3ccc(C(=O)N4CCNCC4)cc3)cc2N1` [Compound 020, 6-(4-(piperazine-1-carbonyl)phenyl)indolin-2-one] returned an IC50 greater than 300 µM.

For the compound `O=C1Cc2ccc(-c3cccc(C(=O)N4CCNCC4)c3)cc2N1` [Compound 021, 6-(3-(piperazine-1-carbonyl)phenyl)indolin-2-one], the IC50 is greater than 300 µM.

Compound `CNC(=O)c1ccc(-c2ccc3c(c2)NC(=O)C3)cc1` [Compound 022, N-methyl-4-(2-oxoindolin-6-yl)benzamide] gave an IC50 of 1 to 100 µM.

The compound `CNC(=O)c1cccc(-c2ccc3c(c2)NC(=O)C3)c1` [Compound 023, N-methyl-3-(2-oxoindolin-6-yl)benzamide] registered an IC50 of 1 to 100 µM.

Consider `O=C1Cc2ccc(C(=O)Nc3ccccc3)cc2N1` [Compound 024, 2-oxo-N-phenylindoline-6-carboxamide], for which the IC50 is greater than 300 µM.

As to `O=C1Cc2ccc(C(=O)NC3CCCCC3)cc2N1` [Compound 025, N-cyclohexyl-2-oxoindoline-6-carboxamide], the IC50 was greater than 300 µM.

For the compound `CN1CCC(NC(=O)c2ccc3c(c2)NC(=O)C3)CC1` [Compound 027, N-(1-methylpiperidin-4-yl)-2-oxoindoline-6-carboxamide], the IC50 is greater than 300 µM.

As to `CN1CCN(CCNC(=O)c2ccc3c(c2)NC(=O)C3)CC1` [Compound 028], the IC50 was greater than 300 µM.

`O=C1Cc2ccc(C(=O)N3CCCCC3)cc2N1` [Compound 029, 6-(piperidine-1-carbonyl)indolin-2-one]: the IC50 was greater than 300 µM.

With `O=C1Cc2cc(Cl)c(C(=O)N3CCCCC3)cc2N1` [Compound 030, 5-chloro-6-(piperidine-1-carbonyl)indolin-2-one], the IC50 is greater than 300 µM.

Regarding `O=C1Cc2ccc(C(=O)Nc3ccncc3)cc2N1` [Compound 031, 2-oxo-N-(pyridin-4-yl)indoline-6-carboxamide], the IC50 is 100 to 300 µM.

Compound `O=C1Cc2ccc(NC(=O)c3ccncc3)cc2N1` [Compound 032, N-(2-oxoindolin-6-yl)isonicotinamide] gave an IC50 of 100 to 300 µM.

Regarding `O=C1Cc2ccc(C(=O)NCc3cccnc3)cc2N1` [Compound 033, 2-oxo-N-(pyridin-3-ylmethyl)indoline-6-carboxamide], the IC50 was greater than 300 µM.

In the case of `O=C1Cc2ccc(OC3CCNCC3)cc2N1` [Compound 034, 6-(piperidin-4-yloxy)indolin-2-one], the IC50 is greater than 300 µM.

`O=C1Cc2ccc(Oc3ccnc(Cl)n3)cc2N1` [Compound 035, 6-((2-chloropyrimidin-4-yl)oxy)indolin-2-one] showed an IC50 greater than 300 µM.

The compound `COC(=O)COc1ccc2c(c1)NC(=O)C2` [Compound 036, methyl 2-((2-oxoindolin-6-yl)oxy)acetate] returned an IC50 greater than 300 µM.

`O=C1Cc2cccc(-c3ccncc3)c2N1` [Compound 037, 7-(pyridin-4-yl)indolin-2-one]: the half-maximal inhibitory concentration (IC50) is greater than 300 µM.

`O=C1Cc2c(cccc2-c2ccncc2)N1` [Compound 038, 4-(pyridin-4-yl)indolin-2-one]: the IC50 was greater than 300 µM.

As for `O=C1Cc2cc(-c3ccncc3)ccc2N1` [Compound 039, 5-(pyridin-4-yl)indolin-2-one], the IC50 was in the range of 100 to 300 µM.

For `COc1cc(-c2ccc3c(c2)CC(=O)N3)ccn1` [Compound 041, 5-(2-methoxypyridin-4-yl)indolin-2-one], the IC50 is greater than 300 µM.

Turning to `Cc1cc(N)ncc1-c1ccc2c(c1)CC(=O)N2` [Compound 043, 5-(6-amino-4-methylpyridin-3-yl)indolin-2-one], the IC50 lay in the range of 100 to 300 µM.

For `Cc1nc(N)ccc1-c1ccc2c(c1)CC(=O)N2` [Compound 044, 5-(6-amino-2-methylpyridin-3-yl)indolin-2-one], the IC50 was 100 to 300 µM.

For `CNc1ccc(-c2ccc3c(c2)CC(=O)N3)cn1` [Compound 046, 5-(6-(methylamino)pyridin-3-yl)indolin-2-one], the IC50 lay in the range of 100 to 300 µM.

In turn, `CNc1cc(-c2ccc3c(c2)CC(=O)N3)ccn1` [Compound 047, 5-(2-(methylamino)pyridin-4-yl)indolin-2-one] had an IC50 of 100 to 300 µM.

`CC(=O)Nc1ncc(-c2ccc3c(c2)CC(=O)N3)cc1C` [Compound 048, N-(3-methyl-5-(2-oxoindolin-5-yl)pyridin-2-yl)acetamide] yielded an IC50 of 100 to 300 µM.

The compound `CC(=O)Nc1ccc(-c2ccc3c(c2)CC(=O)N3)c(C)n1` [Compound 049, N-(6-methyl-5-(2-oxoindolin-5-yl)pyridin-2-yl)acetamide] showed a half-maximal inhibitory concentration (IC50) greater than 300 µM.

`CC(=O)Nc1cc(C)c(-c2ccc3c(c2)CC(=O)N3)cn1` [Compound 050, N-(4-methyl-5-(2-oxoindolin-5-yl)pyridin-2-yl)acetamide]: the IC50 was in the range of 1 to 100 µM.

Regarding `O=C1Cc2cc(-c3ccccc3)ccc2N1` [Compound 051, 5-phenylindolin-2-one], the IC50 is greater than 300 µM.

Take `CC(C)(C)OC(=O)N1CCN(C(=O)c2ccc(-c3ccc4c(c3)CC(=O)N4)cc2)CC1` [Compound 052, tert-butyl 4-(4-(2-oxoindolin-5-yl)benzoyl)piperazine-1-carboxylate]: the IC50 is greater than 300 µM.

`CC(C)(C)OC(=O)N1CCN(C(=O)c2cccc(-c3ccc4c(c3)CC(=O)N4)c2)CC1` [Compound 053, tert-butyl 4-(3-(2-oxoindolin-5-yl)benzoyl)piperazine-1-carboxylate] returned an IC50 of 1 to 100 µM.

`O=C1Cc2cc(-c3ccc(C(=O)N4CCNCC4)cc3)ccc2N1` [Compound 054, 5-(4-(piperazine-1-carbonyl)phenyl)indolin-2-one] gave an IC50 of 100 to 300 µM.

`O=C1Cc2cc(-c3cccc(C(=O)N4CCNCC4)c3)ccc2N1` [Compound 055, 5-(3-(piperazine-1-carbonyl)phenyl)indolin-2-one] yielded an IC50 of 100 to 300 µM.

`O=C1Cc2cc(-c3cccnc3)ccc2N1` [Compound 056, 5-(pyridin-3-yl)indolin-2-one] registered an IC50 of 100 to 300 µM.

The compound `O=C1Cc2cc(-c3ccc(N4CCCCC4)nc3)ccc2N1` [Compound 057, 5-(6-(piperidin-1-yl)pyridin-3-yl)indolin-2-one] yielded an IC50 greater than 300 µM.

As to `O=C1Cc2cc(C(=O)N3CCCCC3)ccc2N1` [Compound 058, 5-(piperidine-1-carbonyl)indolin-2-one], the IC50 lay in the range of 100 to 300 µM.

Compound `O=C1Cc2cc(NC(=O)c3ccncc3)ccc2N1` [Compound 059, N-(2-oxoindolin-5-yl)isonicotinamide] returned an IC50 of 100 to 300 µM.

`CC(=O)N1CCC(C(=O)Nc2ccc3c(c2)CC(=O)N3)CC1` [Compound 060, 1-acetyl-N-(2-oxoindolin-5-yl)piperidine-4-carboxamide] yielded an IC50 of 100 to 300 µM.

`O=C1Nc2cc(-c3ccncc3)ccc2C1(F)F` [Compound 061, 3,3-difluoro-6-(pyridin-4-yl)indolin-2-one] gave an IC50 greater than 300 µM.

On to `CC1(C)C(=O)Nc2cc(-c3ccncc3)ccc21` [Compound 062, 3,3-dimethyl-6-(pyridin-4-yl)indolin-2-one], for which the IC50 is greater than 300 µM.

These data come from patent US11542274B1, “Therapeutic compounds and methods of use thereof” (AGENCY FOR SCIENCE, TECHNOLOGY AND RESEARCH (A*STAR), priority 2019, dated 2023).
